# Results from patent US7501430B2 (ArQule, Inc., priority 2006, dated 2009).
# Biological target: T1, mutant B-RAF (Homo sapiens, UniProt P15056, V600E)
# T1 construct: purchased Upstate (Charlottesville, Va.)
# Assay: RAF biochemical assay (MEK-1 phosphorylation, anti-phospho MEK1/2 detection)
# Details: not given
# In short: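 Detection is by ELISA: after a 30 min room-temperature reaction, plate-captured GST-MEK-1 is probed with anti-phospho MEK1/2, then an AP-tagged secondary antibody with fluorescent Attophos read-out.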
# T1 sequence (P15056 whole entry V600E): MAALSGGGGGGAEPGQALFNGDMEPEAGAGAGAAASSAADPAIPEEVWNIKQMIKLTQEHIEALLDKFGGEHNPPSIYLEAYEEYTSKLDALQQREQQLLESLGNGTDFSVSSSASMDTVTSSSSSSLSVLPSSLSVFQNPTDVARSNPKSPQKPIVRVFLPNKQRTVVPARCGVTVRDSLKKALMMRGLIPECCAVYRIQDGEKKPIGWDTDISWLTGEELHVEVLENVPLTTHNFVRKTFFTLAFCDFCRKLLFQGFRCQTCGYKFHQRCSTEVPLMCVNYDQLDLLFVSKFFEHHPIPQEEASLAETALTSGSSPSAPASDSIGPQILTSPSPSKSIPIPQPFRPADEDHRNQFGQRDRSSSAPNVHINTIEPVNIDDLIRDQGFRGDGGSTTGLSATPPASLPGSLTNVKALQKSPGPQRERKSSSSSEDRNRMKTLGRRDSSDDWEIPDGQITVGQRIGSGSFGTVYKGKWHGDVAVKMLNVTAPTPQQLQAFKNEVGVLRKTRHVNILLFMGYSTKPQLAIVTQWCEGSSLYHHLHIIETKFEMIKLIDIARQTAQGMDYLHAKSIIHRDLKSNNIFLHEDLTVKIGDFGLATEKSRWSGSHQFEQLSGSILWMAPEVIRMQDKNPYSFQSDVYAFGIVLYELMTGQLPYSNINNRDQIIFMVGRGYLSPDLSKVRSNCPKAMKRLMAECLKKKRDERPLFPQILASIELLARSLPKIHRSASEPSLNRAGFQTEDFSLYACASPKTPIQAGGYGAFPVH
row,Compound,IC50
1,"O=C(c1ccc(F)cc1)N1CCC[C@@H](Nc2nccc(-c3c(-c4ccc(F)cc4)nc4occn34)n2)C1 [Example 28, N-[(3R)-1-(4-fluorobenzoyl)piperidin-3-yl]-4-[6-(4-fluorophenyl)imi-dazo[2,1-b][1,3]oxazol-5-yl]pyrimidin-2-amine]",0.184 µM

# Same assay, conditions: @ 10 uM; read-out: Mutant B-RAF % inhibition
row,inhibition at 10 µM,Compound
1,56%,"COc1cccc(-c2nc3sccn3c2-c2ccnc(N[C@@H]3CCCN(S(=O)(=O)c4cccc(OC)c4)C3)n2)c1 [Example 142, 4-[6-(3-methoxyphenyl)imidazo[2,1-b][1,3]thiazol-5-yl]-N-{(3R)-1-[(3-methoxyphenyl)sulfonyl]piperidin-3-yl}pyrimidin-2-amine]"
2,55%,Fc1ccc(CN2CCCC(Nc3nccc(-c4c(-c5ccc(F)cc5)nc5sccn45)n3)C2)cc1 (stereo not shown) [Example 4]
3,41%,"COc1cccc(-c2nc3sccn3c2-c2ccnc(N[C@H]3CCCN(S(=O)(=O)c4ccc(Cl)cc4)C3)n2)c1 [Example 139, N-{(3S)-1-[(4-chlorophenyl)sulfonyl]piperidin-3-yl}-4-[6-(3-methoxyphenyl)imidazo[2,1-b][1,3]thiazol-5-yl]pyrimidin-2-amine]"
4,39%,"CC(=O)N1CCC(Nc2nccc(-c3c(-c4ccccc4Cl)nc4occn34)n2)CC1 [Example 302, N-(1-acetylpiperidin-4-yl)-4-[6-(2-chlorophenyl)imidazo[2,1-b][1,3]oxazol-5-yl]pyrimidin-2-amine]"

# Same assay, conditions: read-out: Mutant B-RAF % inhibition
row,Compound,inhibition at 10 µM
1,"O=S(=O)(c1ccc(Oc2ccccc2)cc1)N1CCC[C@@H](Nc2nccc(-c3c(-c4ccc(F)cc4)nc4occn34)n2)C1 [Example 60, 4-[6-(4-fluorophenyl)imi-dazo[2,1-b][1,3]oxazol-5-yl]-N-{(3R)-1-[(4-phenoxy-phenyl)sulfonyl]piperidin-3-yl}pyrimidin-2-amine]",15%
2,"COc1cccc(-c2nc3sccn3c2-c2ccnc(N[C@@H]3CCCN(C(=O)c4ccc(F)cc4)C3)n2)c1 [Example 108, N-[(3R)-1-(4-fluorobenzoyl)piperidin-3-yl]-4-[6-(3-methoxyphenyl)imi-dazo[2,1-b][1,3]thiazol-5-yl]pyrimidin-2-amine]",73%

# Same assay, conditions: read-out: Mutant B-RAF IC50
row,IC50,Compound
1,0.521 µM,"O=S(=O)(c1ccc(OC(F)(F)F)cc1)N1CCC(Nc2nccc(-c3c(-c4ccc(F)cc4)nc4occn34)n2)CC1 [Example 203, 4-[6-(4-fluorophenyl)imidazo[2,1-b][1,3]oxazol-5-yl]-N-(1-{[4-(trifluoromethoxy)phenyl]sulfonyl}piperidin-4-yl)pyrimidin-2-amine]"
2,0.147 µM,"COc1cccc(-c2nc3sccn3c2-c2ccnc(N[C@@H]3CCCN(S(=O)(=O)c4ccc(Cl)cc4)C3)n2)c1 [Example 95, N-{(3R)-1-[(4-chlorophenyl)sulfonyl]piperidin-3-yl}-4-[6-(3-methoxyphenyl)imidazo[2,1-b][1,3]thiazol-5-yl]pyrimidin-2-amine]"
3,0.003 µM,"O=S(=O)(c1ccccc1)N1CCC[C@@H](Nc2nccc(-c3c(-c4cccc(O)c4)nc4sccn34)n2)C1 [Example 372, 3-[5-(2-{[(3R)-1-(phenylsulfonyl)piperidin-3-yl]amino}pyrimidin-4-yl)imidazo[2,1-b][1,3]thiazol-6-yl]phenol]"
4,0.009 µM,"O=S(=O)(c1cccs1)N1CCC[C@@H](Nc2nccc(-c3c(-c4cccc(O)c4)nc4occn34)n2)C1 [Example 388, 3-[5-(2-{[(3R)-1-(2-thienylsulfonyl)piperidin-3-yl]amino}pyrimidin-4-yl)imidazo[2,1-b][1,3]oxazol-6-yl]phenol]"
5,0.018 µM,"NC(=O)c1ccc(S(=O)(=O)N2CCC(Nc3nccc(-c4c(-c5cccc(O)c5)nc5occn45)n3)CC2)cc1 [Example 319, 4-{[4-({4-[6-(3-hydroxyphenyl)imidazo[2,1-b][1,3]oxazol-5-yl]pyrimidin-2-yl}amino)piperidin-1-yl]sulfonyl)benzamide]"
6,0.458 µM,"O=S(=O)(c1ccc(F)cc1)N1CCCC(Nc2nccc(-c3c(-c4ccc(F)cc4)nc4sccn34)n2)C1 (stereo not shown) [Example 2, 4-[6-(4-fluorophenyl)imidazo[2,1-b][1,3]thiazol-5-yl]-N-{1-[(4-fluorophenyl)sulfonyl]piperidin-3-yl}pyrimidin-2-amine]"
